Laboratory results published in patent US11352350B2, “IRAK degraders and uses thereof” (Kymera Therapeutics, Inc., priority 2018, dated 2022).
Read-outs that look alike come from different tables or passages of the source.

Columns and labels:
[1] = system: OCI-LY10 cells; assay: In vitro combination studies in OCI-LY10 (Chou-Talalay); format: cell-based, human
Description: The ABC-DLBCL cell line OCI-LY10 was MV4-11 cells were maintained in IMDM (Invitrogen, supplemented with 20% heat inactivated fetal bovine serum (Life Technologies, Grand Island, N.Y) plus+BME. Cultures were maintained in a humidified atmosphere including 5% CO2. Studies were performed using OCI-LY10 cells in vitro to evaluate the anti-proliferative effect of a combination of two agents together on cell growth. The cell counts were measured by ATP quantitation using the Promega Cell Titer Glo kit and luminescence values corresponded to the amount of ATP in a given well. Compounds evaluated for synergy were tested in a range which was bracketed around the IC50's. The compounds were plated to a 384 well plate in a matrix format which includes increasing concentrations of each drug in the combination in a constant ratio, in addition to the effect of each compound alone in the study. […] DMSO concentration was less than 0.2% v/v.
The drug combination analysis was performed utilizing the Chou-Talalay method [Chou TC Pharmacological Reviews 2006]. Maximum and minimum inhibition (DMSO alone) controls were used in each plate to calculate fraction affected (Fa) of a test well. […] Synergy was determined using the software package Calcusyn by Biosoft. Graphs representing values of combination index (CI) versus Fractional effect (Fa) known as Fa-CI plots were generated and synergy was evaluated.

[2] = system: OCI-LY10 tumor cells; assay: OCI-LY10 large B lymphoma xenograft model in C.B. 17 SCID mice; format: in vivo, mouse
Description: Cell Culture: The OCI-LY10 or TMD8 tumor cells were maintained as suspension in RPMI1640 medium supplemented with 10% fetal bovine serum, 100 U/mL penicillin and 100 μg/mL streptomycin at 37° C. in an atmosphere of 5% CO2 in air. The tumor cells were routinely subcultured twice weekly by trypsin-EDTA treatment. The cells growing in an exponential growth phase were harvested and counted for tumor inoculation.
Animals: C.B. 17 SCID, female, 6-8 weeks, weighing approximately 16-18 g were used. Animals were housed and maintained according to IACUC protocols.
Tumor Inoculation: Each mouse was inoculated subcutaneously at the right flank with OCI-LY10 or TMD8 tumor cells (10×10^6) in 0.2 mL of PBS with matrigel for tumor development. The treatments were started when the tumor sizes reached approximately 150-450 mm^3 for the studies.
Assignment to Groups: Before commencement of treatment, all animals were weighed and the tumor volumes were measured. Since the tumor volume can affect the compound PK/PD, mice are assigned into groups using an Excel-based randomization procedure performing stratified randomization based upon their tumor volumes.
Observation: After tumor inoculation, the animals were checked daily for morbidity and mortality. During routine monitoring, the animals were checked for any effects of tumor growth and treatments on behavior such as mobility, food and water consumption, body weight gain/loss, eye/hair matting and any other abnormalities. Mortality and observed clinical signs were recorded for individual animals in detail.
Data Collection: Tumor volumes were measured in two dimensions using a caliper, and the volumes were expressed in mm^3 using the formula: “V=(L×W×W)/2, where V is tumor volume, L is tumor length (the longest tumor dimension) and W is tumor width (the longest tumor dimension perpendicular to L).
At termination: At pre-determined time points based on study design, animals were humanely sacrificed by CO2. Blood was obtained by cardiac puncture for isolation of plasma, any residual tumor was removed and divided in 2 portions, 1 (minimal) for terminal compound exposure and 1 to determine IRAK4 and actin. Compound was determined in tumor and plasma using LC/MS with calibrated standards.

[3] = system: Wistar Strain rats; assay: MSU induced gouty arthritis (knee inflammation) in rats; format: in vivo; conditions: prophylactic treatment, MSU-induced knee inflammation rat model
Description: The anti-inflammatory efficacy and pain reduction for prophylactic treatment in an MSU-induced knee inflammation rat model of human gout was evaluated. See Kou, Y-Y et al., Evid-Based Compl. Alt. (doi: http://dx.doi.org/10.1155/2015/527019).
Preparation of MSU crystals: 4 g uric acid is dissolved in 800 ml 0.03N NaOH and heated to 60° C. NaOH is added as required to maintain pH 8.9. The solution is stored overnight at 4-8° C. Crystals are filtered, washed and dried. Crystals are suspended in sterile saline just prior to use.
Efficacy Study: Receive and quarantine 70 Wistar Strain rats (male, 250-300 g). Following quarantine, rats are accepted for the Study if no signs of clinical distress are noted during the 3-day quarantine period. […] The rat weights are recorded. […] Baseline readings are taken on DAY −3. Baseline knee diameters are measured by digital caliper. Baseline responses to mechanical allodynia, as measured by von Frey fibers, are recorded. […]
DAY 1: Rats are weighed and dosed as in Table 14. One hour after dosing, mechanical allodynia and knee diameters are measured and recorded.
DAY 2: Rats are weighed and dosed as in Table 14 One hour after dosing, mechanical allodynia and knee diameters are measured and recorded. […]
Results are tabulated, graphed and statistically analyzed for anti-inflammatory efficacy and pain reduction.

[4] = system: SU-DHL2; assay: SU-DHL2 viability, CTG; format: cell-based; conditions: Homo sapiens, SU-DHL-2
[5] = system: OCI-LY19; assay: OCI-LY19 viability, CTG; format: cell-based; conditions: Homo sapiens, OCI-LY19

Compound: CN(CCCOCCCc1cccc2c1n(C)c(=O)n2C1CCC(=O)NC1=O)C[C@H]1CC[C@H](n2cc(NC(=O)c3coc(-c4ccnc(NCC5CC5)c4)n3)c(C(F)F)n2)CC1 (mixture of isomers) [I-30, 2-[2-(Cyclopropylmethylamino)-4-pyridyl]-N-[3-(difluoromethyl)-1-[4-[[3-[3-[1-(2,6-dioxo-3-piperidyl)-3-methyl-2-oxo-benzimidazol-4-yl]propoxy]propyl-methyl-amino]methyl]cyclohexyl]pyrazol-4-yl] oxazole-4-carboxamide]
- apoptosis, combined with a BTK inhibitor ([1]; OCI-LY10 bearing MYD88 L265P and CD79 mutations, within 72 h, FIG. 12): greater than additive increase in apoptosis
- synergy with BTK inhibition vs cell viability ([1]; four day Cell Titer Glo read out): synergistic
- antitumor effect in OCI-LY10 xenograft ([2]; FIG. 6 A-C): causes tumor regression
- in vivo tumor growth inhibition, combination with ibrutinib ([2]; OCI-LY10 (MYD88 L265P, CD79 mutant), combination of I-30 and ibrutinib at sub-optimal single agent concentrations, FIG. 13): synergistic in vivo tumor growth inhibition
- in vivo tumor growth of implanted OCI-LY10 (MYD88 mutant) cells ([2]; PO BID administration, FIG. 7): inhibits in vivo tumor growth

Compound: CN(C[C@H]1CC[C@H](n2cc(NC(=O)c3coc(-c4ccnc(NCC5CC5)c4)n3)c(C(F)F)n2)CC1)C1CCN(Cc2cccc3c2n(C)c(=O)n3C2CCC(=O)NC2=O)CC1 (stereo partly drawn) [I-75, 2-(2-((cyclopropylmethyl)amino)pyridin-4-yl)-N-(3-(difluoromethyl)-1-((1r,4r)-4-(((1-((1-(2,6-dioxopiperidin-3-yl)-3-methyl-2-oxo-2,3-dihydro-1H-benzo[d]imidazol-4-yl)methyl)piperidin-4-yl)(methyl)amino)methyl)cyclohexyl)-1H-pyrazol-4-yl)oxazole-4-carboxamide]
- knee joint swelling ([3]; FIG. 17 A): decreasing knee joint swelling
- pain sensitivity ([3]; FIG. 17 B): analgesic effect
- antitumor activity against OCI-LY10, oral dosing ([2]; xenograft-bearing mice, FIG. 14): dose-dependent antitumor activity
- IC50 ([4]; MYD88 MUT, read-out: SU-DHL2 CTG IC50): 0.29 µM
- IC50 ([4]; MYD88 Mutant Lines, read-out: SU-DHL2 Viability, CTG IC50): 0.29 µM
- IC50 ([5]; MYD88 WT Lines, read-out: OCI-LY19 Viability, CTG IC50): 0.48 µM
- IC50 ([5]; MYD88 WT, read-out: OCI-LY19 CTG IC50): 0.48 µM
